The numbers were not newly measured in paper PMC12308805, “Ultrahigh-Throughput Virtual Screening Strategies against PPI Targets: A Case Study of STAT Inhibitors” (Journal of Chemical Information and Modeling, 2025), which cites them from elsewhere.

The series deals with STAT5b. More on the design: method as in literature. As to conditions: training set for retrospective virtual screening with 6MBW; known actives for STAT5b found in the literature; ref literature; cited from earlier work.
For the molecule `CC(C)(C)c1cc(CN(C(=O)CN(Cc2ccc(Cl)cc2)S(=O)(=O)c2c(F)c(F)c(F)c(F)c2F)c2ccc(C(=O)O)cc2)cc(C(C)(C)C)c1` [AC-4-130, CC(C)(C)c1cc(CN(C(=O)CN(Cc2ccc(Cl)cc2)S(=O)(=O)c2c(F)c(F)c(F)c(F)c2F)c2ccc(C(=O)O)cc2)cc(C(C)(C)C)c1], the “Type (Active / decoy)” value is recorded as “Active”.

In the case of `COC(=O)c1cccc(-c2ccc(-c3ccc(CN(C(=O)CN(C)S(=O)(=O)c4ccc(C)cc4)c4ccc(C(=O)O)c(O)c4)cc3)cc2)c1` [BP-1-075, COC(=O)c1cccc(-c2ccc(-c3ccc(CN(C(=O)CN(C)S(=O)(=O)c4ccc(C)cc4)c4ccc(C(=O)O)c(O)c4)cc3)cc2)c1], the “Type (Active / decoy)” value is reported as “Active”.

`CN(CC(=O)N(Cc1ccc(C2CCCCC2)cc1)c1ccc(C(=O)O)c(O)c1)S(=O)(=O)c1ccc(-c2ccccc2)cc1` [BP-1-107, CN(CC(=O)N(Cc1ccc(C2CCCCC2)cc1)c1ccc(C(=O)O)c(O)c1)S(=O)(=O)c1ccc(-c2ccccc2)cc1]: the “Type (Active / decoy)” value is “Active”.

In the case of `Cc1cc(C)c(S(=O)(=O)N(C)CC(=O)N(Cc2ccc(C3CCCCC3)cc2)c2ccc(C(=O)O)c(O)c2)c(C)c1` [BP-1-108, Cc1cc(C)c(S(=O)(=O)N(C)CC(=O)N(Cc2ccc(C3CCCCC3)cc2)c2ccc(C(=O)O)c(O)c2)c(C)c1], the “Type (Active / decoy)” value is recorded as “Active”.
